Results published in patent US20240287429A1, “MEDICINAL AGENT EFFECT PREDICTION SYSTEM” (Tohoku Institute of Technology, priority 2021, published 2024).

How the values were obtained:
[1] = tested on: neurites growing from nerve cells (rat DRG cells); assay: assessment by medicinal agent effect prediction system: microscope image of neurites cultured in the microfluidic device, applied to learned model M1; assay type: cell-based; conditions: image of FIG. 10 applied to learned model M1; result shown in FIG. 11
Source text: FIG. 7A to FIG. 7D are observation images obtained by culturing nerve cells 41 in the microfluidic devices 30 using culture solutions respectively containing different known substances and observing, with a microscope, neurites 42 located in the second culture spaces 37. It should be noted that rat DRG cells are herein used as nerve cells 41, but various cells such as mouse DRG cells, human ES cells, or human iPS cells can be used.
Then, neurites 42 growing from the nerve cells 41 and located in the second culture space 37 were observed by the microscope 50 to obtain an observation image.
Image data based on the observation image was input as input data for assessment i42t to the system 10 through the data input receiving unit 11. In the system 10, the assessment unit 15 applied the input data for assessment i42t to the learned model M1. That is, features based on the input data for assessment i42t were applied to the input layer of the learned model M1. As a result, the result of assessment shown in FIG. 11 was output from the display output unit 17.
The percentage of correct answers is further improved by increasing the number of samples of teaching data and the number of times of learning.

peripheral nerves = conditions: stated as known; not the applicant's own test; cited from earlier work

| result of assessment (impaired nerve site predicted by the system) [1] | SMILES | impairment of peripheral nerves the substance is known to cause (peripheral nerves) |
| --- | --- | --- |
| high possibility of causing axonopathy | CC(=O)O[C@H]1C(=O)[C@@]2(C)[C@H]([C@H](OC(=O)c3ccccc3)[C@]3(O)C[C@H](OC(=O)[C@H](O)[C@@H](NC(=O)c4ccccc4)c4ccccc4)C(C)=C1C3(C)C)[C@]1(OC(C)=O)CO[C@@H]1C[C@@H]2O [Paclitaxel] | – |
| – | OC[C@H]1O[C@@](CO)(O[C@H]2O[C@H](CO)[C@@H](O)[C@H](O)[C@H]2O)[C@@H](O)[C@@H]1O [Sucrose] | not to be toxic to peripheral nerves |
| – | CC[C@]1(O)C[C@H]2CN(CCc3c([nH]c4ccccc34)[C@@](C(=O)OC)(c3cc4c(cc3OC)N(C=O)[C@H]3[C@@](O)(C(=O)OC)[C@H](OC(C)=O)[C@]5(CC)C=CCN6CC[C@]43[C@@H]65)C2)C1 [Vincristine] | axonopathy |
| – | O=C1[O][Pt]2([NH][C@@H]3CCCC[C@H]3[NH]2)[O]C1=O [Oxaliplatin] | neuronopathy |
